Target: T1, KRas G12C (Homo sapiens, UniProt P01116, C118S/C51S/C80L/G12C)
T1 construct: GDP-loaded K-Ras (1-169) G12C, C51S, C80L, C118S
Assay: KRas G12C Modification Assay (LCMS detection of covalent adduct)
Assay type: binding
Conditions: 5 μM concentration for 3 hours; LC/MS of intact protein; higher POC = higher degree of modification
Procedure: A 10 μL aliquot of each protein solution was then transferred to a 384 well microtiter plate. Initial compound stocks were generated at fifty times their desired final assay concentration in DMSO.
Exemplary compounds of Formula (II) were diluted 25-fold into K-Ras Assay Buffer to a final of two times their final concentration. A 10 μL aliquot of each diluted compound solution was then added to each of the protein solutions in the microtiter plate to initiate reaction. […] At each time point, the reactions were quenched with 20 μL of a 25 mM acetic acid solution. […] Once all reactions were quenched, the plates were heat sealed and the samples were injected into a LC/MS system for data acquisition.
Samples were injected in their liquid phase onto a C-3 reverse phase column to remove assay buffer and prepare the samples for mass spectrometer. The proteins were eluted from the column using an acetonitrile gradient and fed directly into the mass analyzer. Initial raw data analysis took place in Agilent MassHunter software immediately post data acquisition.
Raw data analysis of the intact protein was exclusively a deconvolution of the multiple charge states of each protein in solution using a maximum entropy deconvolution provided in Mass Hunter. To minimize complexity, only the data over limited mass ranges were considered for analysis, with a minimum of one Dalton mass step intervals. The heights of all masses identified during raw data analysis were exported to be further analyzed in Spotfire® data analysis software.
Final data analysis was a multistep process in the Spotfire® data analysis software package. Briefly, each protein mass was calculated as a percent of the total signal of that sample, that percentage was then normalized to the percentage of signal of the protein in the absence of reactive compounds. Those normalized signals were reported as normalized percent of control (POC). […] Key: “A”≤25% POC; “B”>25% POC−≤50% POC; “C”>50% POC and ND=not determined.

Compound	POC (normalized percent of control; degree of covalent modification of KRas G12C)
Cc1cccc(N2CCc3c(nc(OC[C@@H]4CCCN4C)nc3N3CCN(C(=O)/C=C\Cl)[C@@H](CC#N)C3)C2)c1C [Example 34, 2-((S)-1-((Z)-3-chloroacryloyl)-4-(7-(2,3-dimethylphenyl)-2-(((S)-1-methylpyrrolidin-2-yl)methoxy)-5,6,7,8-tetrahydropyrido[3,4-d]pyrimidin-4-yl)piperazin-2-yl)acetonitrile]	C (“C”>50% POC)
CN1CCC[C@H]1COc1nc2c(c(N3CCN(C(=O)C#CCO)[C@@H](CC#N)C3)n1)CCN(c1cccc3cccc(Cl)c13)C2 [Example 12, 2-[(2S)-4-[7-(8-chloro-1-naphthyl)-2-[[(2S)-1-methylpyrrolidin-2-yl]methoxy]-6,8-dihydro-5H-pyrido[3,4-d]pyrimidin-4-yl]-1-(4-hydroxybut-2-ynoyl)piperazin-2-yl]acetonitrile]	C (“C”>50% POC)
Cc1cccc2cccc(N3CCc4c(nc(OC[C@@H]5CCCN5C)nc4N4CCN(C(=O)/C=C/C(N)=O)[C@@H](CC#N)C4)C3)c12 [Example 29, (E)-4-((S)-2-(cyanomethyl)-4-(7-(8-methylnaphthalen-1-yl)-2-(((S)-1-methylpyrrolidin-2-yl)methoxy)-5,6,7,8-tetrahydropyrido[3,4-d]pyrimidin-4-yl)piperazin-1-yl)-4-oxobut-2-enamide]	C (“C”>50% POC)
C=C(C(=O)N1CCN(c2nc(OC[C@@H]3CCCN3C)nc3c2CCN(c2cccc4cccc(C)c24)C3)C[C@@H]1CC#N)C(F)(F)F [Example 21, 2-((S)-4-(7-(8-methylnaphthalen-1-yl)-2-(((S)-1-methylpyrrolidin-2-yl)methoxy)-5,6,7,8-tetrahydropyrido[3,4-d]pyrimidin-4-yl)-1-(2-(trifluoromethyl)acryloyl)piperazin-2-yl)acetonitrile]	A (“A”≤25% POC)
Cc1cccc2cccc(N3CCc4c(nc(OC[C@@H]5CCCN5C)nc4N4CCN(C(=O)C5=CC(=O)CC5)[C@@H](CC#N)C4)C3)c12 [Example 26, 2-((S)-4-(7-(8-methylnaphthalen-1-yl)-2-(((S)-1-methylpyrrolidin-2-yl)methoxy)-5,6,7,8-tetrahydropyrido[3,4-d]pyrimidin-4-yl)-1-(3-oxocyclopent-1-ene-1-carbonyl)piperazin-2-yl)acetonitrile]	C (“C”>50% POC)
COC/C=C/C(=O)N1CCN(c2nc(OC[C@@H]3CCCN3C)nc3c2CCN(c2cccc(C)c2C)C3)C[C@@H]1CC#N [Example 18, 2-((S)-4-(7-(2,3-dimethylphenyl)-2-(((S)-1-methylpyrrolidin-2-yl)methoxy)-5,6,7,8-tetrahydropyrido[3,4-d]pyrimidin-4-yl)-1-((E)-4-methoxybut-2-enoyl)piperazin-2-yl)acetonitrile]	C (“C”>50% POC)
Cc1cccc2cccc(N3CCc4c(nc(OC[C@@H]5CCCN5C)nc4N4CCN(C(=O)C#CCO)[C@@H](CC#N)C4)C3)c12 [Example 37, 2-((S)-1-(4-hydroxybut-2-ynoyl)-4-(7-(8-methylnaphthalen-1-yl)-2-(((S)-1-methylpyrrolidin-2-yl)methoxy)-5,6,7,8-tetrahydropyrido[3,4-d]pyrimidin-4-yl)piperazin-2-yl)acetonitrile]	C (“C”>50% POC)
C=C(COC)C(=O)N1CCN(c2nc(OC[C@@H]3CCCN3C)nc3c2CCN(c2cccc4cccc(Cl)c24)C3)C[C@@H]1CC#N [Example 14, 2-[(2S)-4-[7-(8-chloro-1-naphthyl)-2-[[(2S)-1-methylpyrrolidin-2-yl]methoxy]-6,8-dihydro-5H-pyrido[3,4-d]pyrimidin-4-yl]-1-[2-(methoxymethyl)prop-2-enoyl]piperazin-2-yl]acetonitrile]	A (“A”≤25% POC)

From patent US20200308170A1, “KRAS G12C INHIBITORS” (Mirati Therapeutics, Inc., priority 2017, published 2020)
